Structures can show the parent of a compound that is named as a salt.
Experiments:
[1] = metabolic conversion in rat liver microsomes; assay type: in vitro ADME; conditions: 40 μM compound, 37° C., pH 7.4, RP-HPLC-MS/MS
Procedure: In a further experiment the metabolic conversion of compounds (Ia) and (IIa) was evaluated according to the following procedure:
The test compounds were incubated in the reaction mixture given below with rat liver microsomes (Corning). For this purpose the reaction mixture (components 1-5, see below) was preincubated for 10 minutes at 37° C. The reaction was started with the addition of 10 μl of the test compound followed by incubation at 37° C. for 0-300 minutes, respectively. At each time point, 50 μl of the mixture were removed, added to 250 μl of ice cold acetonitrile and vortexed immediately. After centrifugation, the acetonitrile solution was analyzed by RP-HPLC-MS/MS system.
1. Magnesiumchloride hexahydrate 50 μl
2. Glucose-6-phosphate 50 μl
4. Glucose-6-phosphate-dehydrogenase: 10 μl
6. Compounds: 40 μM (10 μl of 4 mM solution in ethanol)
Total volume: 1000 μl in 0.1 M Trizma-buffer (pH 7.4 at 37° C.)
Acquity UPLC®-Quattro Premier XE (MS) system by Waters
Column: BEH C18, 2.1×50 mm, 1.2 μm pore diameter, Waters
Solvent A: H2O, NH4-formiate 2 mM+0.1% formic acid
Solvent B: Methanol, NH4-formiate 2 mM+0.1% formic acid
Flow regime: from 70% solvent A/30% solvent B to 100% Solvent A in 2.4 minutes, then 70% solvent A/30% solvent B for 0.8 minutes.

[2] = molecular target: GSK-3β (Homo sapiens, UniProt P49841); assay: KinaseProfiler protein kinase inhibition, GSK-3β; assay type: biochemical
Procedure: (§1) The effect of test compounds on the activity of the protein kinases GSK-3β, VEGFR-2 and FLT-3 was evaluated based on half maximal inhibitory concentration (IC50) values determined by Eurofins Pharma Discovery Services UK Limited, Gemini Crescent, Dundee Technology Park, Dundee, DD2 1SW (KinaseProfiler™). Detailed information can be found at: http://www.eurofins.com/pharma-services/pharma-discovery-services/services/in-vitro-pharmacology/kinases/biochemical.aspx. The assays are also described in Biochem. J. (2013) 451, 313-328.

[3] = molecular target: T1, VEGFR-2 (Homo sapiens, UniProt P35968); assay: KinaseProfiler protein kinase inhibition, VEGFR-2; assay type: biochemical
T1 construct: purchased Eurofins Pharma Discovery Services UK Limited (KinaseProfiler)
Text: Detailed information can be found at: http://www.eurofins.com/pharma-services/pharma-discovery-services/services/in-vitro-pharmacology/kinases/biochemical.aspx. The assays are also described in Biochem. J. (2013) 451, 313-328.

[4] = molecular target: T2, FLT-3 (Homo sapiens, UniProt P36888); assay: KinaseProfiler protein kinase inhibition, FLT-3; assay type: biochemical
T2 construct: purchased Eurofins Pharma Discovery Services UK Limited (KinaseProfiler)
T2 sequence (P36888 27-993): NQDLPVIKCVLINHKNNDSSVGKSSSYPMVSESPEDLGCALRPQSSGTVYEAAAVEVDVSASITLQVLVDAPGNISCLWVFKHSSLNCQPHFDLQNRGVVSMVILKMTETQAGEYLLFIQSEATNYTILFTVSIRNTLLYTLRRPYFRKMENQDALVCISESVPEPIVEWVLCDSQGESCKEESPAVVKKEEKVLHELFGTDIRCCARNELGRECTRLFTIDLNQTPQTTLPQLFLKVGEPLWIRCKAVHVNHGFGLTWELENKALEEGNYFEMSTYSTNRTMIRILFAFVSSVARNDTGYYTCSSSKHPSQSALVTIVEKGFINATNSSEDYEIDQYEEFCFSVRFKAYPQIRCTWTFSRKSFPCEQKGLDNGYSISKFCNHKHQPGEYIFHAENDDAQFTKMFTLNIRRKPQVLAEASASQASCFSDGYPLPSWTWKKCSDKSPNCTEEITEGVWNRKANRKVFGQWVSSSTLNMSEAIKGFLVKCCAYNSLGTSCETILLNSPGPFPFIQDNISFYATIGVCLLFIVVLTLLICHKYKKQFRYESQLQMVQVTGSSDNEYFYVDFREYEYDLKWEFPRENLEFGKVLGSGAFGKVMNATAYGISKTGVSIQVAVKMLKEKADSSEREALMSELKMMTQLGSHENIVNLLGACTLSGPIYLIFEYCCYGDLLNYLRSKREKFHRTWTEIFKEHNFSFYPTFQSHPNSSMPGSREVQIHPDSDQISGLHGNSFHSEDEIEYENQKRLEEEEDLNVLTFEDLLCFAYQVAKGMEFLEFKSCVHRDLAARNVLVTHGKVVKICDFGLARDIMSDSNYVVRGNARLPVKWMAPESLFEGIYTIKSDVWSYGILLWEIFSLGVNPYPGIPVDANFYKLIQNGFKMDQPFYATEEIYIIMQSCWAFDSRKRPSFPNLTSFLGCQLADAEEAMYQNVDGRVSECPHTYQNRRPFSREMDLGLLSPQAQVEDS
Procedure: as §1

[5] = tested on: HT-29 human colon adenocarcinoma cells; assay: MTT assay, antiproliferative activity; assay type: cell-based; conditions: HT-29 cells, 3 days exposure, FIG. 3
Text: Each experiment was done in triplicate.

T1 sequence (P35968 20-1356): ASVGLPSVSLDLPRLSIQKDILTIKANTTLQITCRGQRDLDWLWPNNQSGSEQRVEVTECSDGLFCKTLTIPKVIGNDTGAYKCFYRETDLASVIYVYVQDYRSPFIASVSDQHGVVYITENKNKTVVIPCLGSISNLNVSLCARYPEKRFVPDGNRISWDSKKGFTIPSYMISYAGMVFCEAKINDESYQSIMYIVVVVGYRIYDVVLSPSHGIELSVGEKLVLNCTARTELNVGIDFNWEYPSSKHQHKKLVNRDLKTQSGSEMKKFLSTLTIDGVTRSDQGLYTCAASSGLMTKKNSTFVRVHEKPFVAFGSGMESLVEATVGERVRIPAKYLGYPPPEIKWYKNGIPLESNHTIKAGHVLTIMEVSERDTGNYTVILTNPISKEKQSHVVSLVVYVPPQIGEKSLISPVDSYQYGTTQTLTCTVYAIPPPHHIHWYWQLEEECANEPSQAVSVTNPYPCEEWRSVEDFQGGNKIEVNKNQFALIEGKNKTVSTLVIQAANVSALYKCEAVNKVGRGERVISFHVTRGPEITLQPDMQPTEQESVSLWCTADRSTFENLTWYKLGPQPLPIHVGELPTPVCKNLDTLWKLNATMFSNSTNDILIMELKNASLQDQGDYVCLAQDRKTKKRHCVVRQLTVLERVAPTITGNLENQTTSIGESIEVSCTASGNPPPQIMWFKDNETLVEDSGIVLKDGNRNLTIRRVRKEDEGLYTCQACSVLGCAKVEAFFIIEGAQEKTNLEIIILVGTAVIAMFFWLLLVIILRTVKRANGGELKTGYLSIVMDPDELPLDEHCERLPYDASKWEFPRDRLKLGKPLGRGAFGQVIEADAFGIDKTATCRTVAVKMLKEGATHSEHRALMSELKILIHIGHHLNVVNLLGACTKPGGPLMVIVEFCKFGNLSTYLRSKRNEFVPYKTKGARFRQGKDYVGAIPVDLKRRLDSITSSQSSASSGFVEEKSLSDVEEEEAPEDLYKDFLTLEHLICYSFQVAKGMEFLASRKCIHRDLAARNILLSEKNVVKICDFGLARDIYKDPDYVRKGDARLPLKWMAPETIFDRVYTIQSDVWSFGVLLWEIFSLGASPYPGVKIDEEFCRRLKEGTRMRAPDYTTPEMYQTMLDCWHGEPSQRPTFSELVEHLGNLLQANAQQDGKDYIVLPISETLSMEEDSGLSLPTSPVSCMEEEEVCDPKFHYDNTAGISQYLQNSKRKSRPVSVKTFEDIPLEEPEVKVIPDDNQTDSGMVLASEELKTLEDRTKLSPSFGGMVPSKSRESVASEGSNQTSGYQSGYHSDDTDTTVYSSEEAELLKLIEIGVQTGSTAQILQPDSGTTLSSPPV
Chain of GSK-3β (P49841 whole entry): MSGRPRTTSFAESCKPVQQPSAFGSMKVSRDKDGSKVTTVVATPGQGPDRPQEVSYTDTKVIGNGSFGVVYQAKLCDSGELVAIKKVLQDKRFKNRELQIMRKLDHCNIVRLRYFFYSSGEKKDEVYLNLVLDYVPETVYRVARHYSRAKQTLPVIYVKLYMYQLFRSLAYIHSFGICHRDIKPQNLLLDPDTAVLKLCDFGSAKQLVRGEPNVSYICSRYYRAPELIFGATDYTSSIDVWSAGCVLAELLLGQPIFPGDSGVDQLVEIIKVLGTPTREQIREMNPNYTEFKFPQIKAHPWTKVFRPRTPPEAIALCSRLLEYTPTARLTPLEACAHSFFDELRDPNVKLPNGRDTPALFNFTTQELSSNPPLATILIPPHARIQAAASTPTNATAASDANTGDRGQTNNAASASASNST

## COc1cc(C2=C(c3cn(CCOC(=O)C(N)CC(C)C)c4ccc(F)cc34)C(=O)NC2=O)cc(OC)c1OC (stereo not shown) (as salt: salt) [Ia, 2-(3-(2,5-Dioxo-4-(3,4,5-trimethoxyphenyl)-2,5-dihydro-1H-pyrrol-3-yl)-5-fluoro-1H-indol-1-yl)-ethyl-2-amino-4-methylpentanoate]
other
  melting point: 180 °C

## COc1cc(C2=C(c3cn(CCOC(=O)C(N)CC(C)C)c4ccccc34)C(=O)NC2=O)cc(OC)c1OC (stereo not shown) [IIa, reference compound]
[1]
  time until largely metabolized: 2 h

## COc1cc(C2=C(c3cn(CCCO)c4ccccc34)C(=O)NC2=O)cc(OC)c1OC [IIe]
[2]
  IC50: 2 nM

## COc1cc(C2=C(c3cn(CCOC(=O)C(N)CC(C)C)c4ccc(F)cc34)C(=O)NC2=O)cc(OC)c1OC (stereo not shown) [Ia, 2-(3-(2,5-Dioxo-4-(3,4,5-trimethoxyphenyl)-2,5-dihydro-1H-pyrrol-3-yl)-5-fluoro-1H-indol-1-yl)-ethyl-2-amino-4-methylpentanoate]
[1]
  time until largely metabolized: 1 h

## COc1cc(C2=C(c3cn(CCO)c4ccc(F)cc34)C(=O)NC2=O)cc(OC)c1OC [Ib, 3-(5-fluoro-1-(2-hydroxyethyl)-1H-indol-3-yl)-4-(3,4,5-trimethoxyphenyl)-maleimide]
[3]
  IC50: 79 nM
[4]
  IC50: 66 nM

## COc1cc(C2=C(c3cn(CCO)c4ccc(F)cc34)C(=O)NC2=O)cc(OC)c1O [Ic, 3-(5-fluoro-1-(2-hydroxyethyl)-1H-indol-3-yl)-4-(4-hydroxy-3,5-dimethoxyphenyl)-maleimide]
other
  melting point: 233 °C

## COc1cc(C2=C(c3c[nH]c4ccc(F)cc34)C(=O)NC2=O)cc(OC)c1O [Id, 3-(5-fluoro-1H-indol-3-yl)-4-(4-hydroxy-3,5-dimethoxyphenyl)-maleimide]
[5]
  antiproliferative activity (viability): higher activity as compared to (IId)

## COc1cc(C2=C(c3cn(CCCO)c4ccc(F)cc34)C(=O)NC2=O)cc(OC)c1OC [If, 3-(5-fluoro-1-(3-hydroxypropyl)-1H-indol-3-yl)-4-(3,4,5-trimethoxyphenyl)-maleimide]
[3]
  IC50: 168 nM
[4]
  IC50: 84 nM
